{
  "source": "patent US20120302614A1",
  "about": "“METHOD FOR IMPROVING CEREBRAL CIRCULATION OR TREATING A CEREBRAL BLOOD FLOW DISORDER” (OSAKA UNIVERSITY, priority 2007, published 2012)",
  "key": {"[1]": {"test_system": "Aβ injection model (Aβ 1-40 administered intracerebroventricularly)", "test": "Morris water maze test in Aβ injection model, Test Example 1", "type": "in vivo, ddY mouse", "conditions": "oral administration for four weeks in advance of Aβ 1-40", "protocol": "The therapeutic effect of olmesartan medoxomil in Aβ injection model and the dose dependency thereof were examined according to the following experimental schedule. [Experimental Schedule]: Prior to the experiment, 8-week old male ddY mice were administered olmesartan medoxomil (0.5 mg/kg/day, 1 mg/kg/day, 3 mg/kg/day or 6 mg/kg/day) or distilled water orally for four weeks (day −28 to −1). Then, Aβ 1-40 was administered to the mice intracerebroventricularly (day 0). (Although Aβ 1-40 was administered into one of the lateral ventricles in WO 2006/059777, Aβ 1-40 was administered in Test Example 1 to both lateral ventricles with an interval of one day between two administrations. Except for this point, Aβ 1-40 administration was performed in the same manner as in WO 2006/059777.) From one week thereafter, a behavioral test to evaluate cognitive function (Morris water maze test; Morris R et al., J Neuroscience Methods 1984, 11, 47-60) was performed (day 7 to 12). As a negative control, mice which had received oral administration of distilled water for four weeks were administered Aβ 40-1 intracerebroventricularly. The administration of olmesartan medoxomil or distilled water was continued until the end of the behavioral test. Measurements were performed as described below. • Hidden platform test: A platform is placed below the water surface of a water pool 150 cm in diameter filled with white water-colored. Mice are released into the water, and the time it takes them to reach the platform is measured. This trial is performed three times a day and for five consecutive days. As they learn, mice become able to reach the platform more quickly day by day. • Visible platform test: Mice are released into the water under such conditions that they can see the platform. The time it takes them to reach the platform is measured. • Probe test: The platform is removed, and mice are released and allowed to swim freely. Those mice with good learning/memory swim in the quadrant where the platform was located searching for the platform. The time they spent in that quadrant is measured. • Annnulus crossing: The number of times mice crossed the platform in the probe test is counted."}, "[2]": {"test_system": "hippocampus (CA1/Schaffer collaterals) of Aβ40-injected mice", "test": "Long-term potentiation in hippocampal slices, Test Example 3", "type": "in vivo, mouse", "conditions": "Aβ40-injected mice with or without treatment", "protocol": "(§1) • Electrophysiology: Long term potentiation was measured as previously reported (Niisato K, Fujikawa A, Komai S, Shintani T, Watanabe E, Sakaguchi G, Katsuura G, Manabe T, Noda M: Age-dependent enhancement of hippocampal long-term potentiation and impairment of spatial learning through the Rho-associated kinase pathway in protein tyrosine phosphatase receptor type Z-deficient mice. J Neurosci 2005; 25:1081-1088). Transverse hippocampal slices (400 μm thick) were prepared from 5- to 10-week-old mice or from 13- to 31-week-old mice and placed in an interface-type holding chamber for at least 1 hr. […] For the analysis of EPSPs, the inventors measured their early rising phase in order to avoid contamination by voltage-dependent components as much as possible. […] The data are expressed as mean±SEM. […] Cerebral blood flow (CBF) was continuously monitored at the site of perfusion with a laser-Doppler probe positioned stereotaxically on the cortical surface and connected to a computerized data acquisition system. CBF values were expressed as percent increase relative to the resting level. Zero values for CBF were obtained after the heart was stopped by an overdose of isoflurane at the end of the experiment. • Effect of topical application of Aβ40 on functional hyperemia: The cranial window was first perfused with Ringer's solution, and CBF responses to whisker stimulation were recorded. […]"}, "Aβ-injected mice [3]": {"test_system": "Aβ-injected mice", "test": "Cerebral blood flow response to whisker stimulation (functional hyperemia), Test Example 3", "type": "in vivo, mouse", "conditions": "Aβ-injected mice with or without treatment", "protocol": "as §1"}, "Aβ-injected mice [4]": {"test_system": "Aβ-injected mice", "test": "Cerebrovascular autoregulation (CBF versus MAP), Test Example 3", "type": "in vivo, mouse", "conditions": "Aβ-injected mice with or without treatment", "protocol": "as §1"}},
  "note": "“Also recorded” adds a separate entry of the source.",
  "data": [
    {"compound": "CCCc1nc(C(C)(C)O)c(C(=O)O)n1Cc1ccc(-c2ccccc2-c2nnn[nH]2)cc1", "note": "[olmesartan, 4-(1-hydroxy-1-methylethyl)-2-propyl-1-[4-[2-(tetrazol-5-yl)phenyl]phenyl]methylimidazole-5-carboxylic acid]", "values": [
      {"measurement": "cognitive impairment (spatial memory and learning) in Morris water maze test, overall", "setting": "[1]", "value": "ameliorated"},
      {"measurement": "long-term potentiation (LTP) in hippocampus, field potential slope after tetanic stimulation", "setting": "[2]", "value": "recovery of LTP"},
      {"measurement": "Aβ-induced impairment in neurovascular coupling (CBF response to whisker stimulation)", "setting": "Aβ-injected mice [3]", "value": "improved; also recorded: recovery of neurovascular coupling"},
      {"measurement": "cerebrovascular autoregulation impaired by Aβ (relation between CBF and MABP)", "setting": "Aβ-injected mice [4]", "value": "recovered"}
    ]}
  ]
}
